Assay results reported in US10172843B2, “Piperidine derivatives” (Hoffmann-La Roche Inc., priority 2014, dated 2019).
Like-named read-outs stand apart in the source and are kept apart here.

Molecular target: human Cat S (Homo sapiens (Human), UniProt P25774)
Assay: Cathepsin enzyme inhibition assay (fluorogenic peptide substrate)
Format: biochemical
Settings: read-out: CatS IC50
Experimental: Cathepsin Enzyme Inhibition Assay
Enzyme activity is measured by observing the increase in fluorescence intensity caused by cleavage of a peptide substrate containing a fluorophore whose emission is quenched in the intact peptide.
Assay buffer: 100 mM potassium phosphate pH 6.5, EDTA-Na 5 mM, Triton X-100 0.001%, DTT 5 mM.
Enzymes (all at 1 nM): human and mouse Cathepsin S, Cat K, Cat B, Cat L.
Substrate ([…], except for Cat K which uses Z-Leu-Arg-AMC (both from Bachem).
Excitation 360 nm, Emission 465 nm.
Enzyme is added to the substance dilutions in 96-well microtitre plates and the reaction is started with substrate. […] IC50 are calculated by standard methods.
Inhibition of human Cat S, mouse Cat S, human Cat K, mouse Cat K, human Cat B, mouse Cat B, human Cat L and mouse Cat L have been measured separately.

[1] = human Cat S, enzyme 1 nM, substrate Z-Val-Val-Arg-AMC, pH 6.5

human Cat S, sequence (P25774 115-331): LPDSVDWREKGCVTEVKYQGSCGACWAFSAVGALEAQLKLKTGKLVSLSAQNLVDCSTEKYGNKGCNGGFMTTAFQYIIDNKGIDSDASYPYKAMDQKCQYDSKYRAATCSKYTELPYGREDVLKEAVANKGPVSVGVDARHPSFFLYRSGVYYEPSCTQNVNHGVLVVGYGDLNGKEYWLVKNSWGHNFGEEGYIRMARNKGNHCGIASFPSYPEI

Row | Molecule | IC50 [1] [nM] | IC50 [nM]
1 | 5-(4-Bromophenyl)-3-[1-[[2-[4-(trifluoromethyl)phenyl]-1H-imidazol-5-yl]methyl]-4-piperidyl]-1H-imidazol-2-one [Example 15] | 4560 | –
2 | Cc1[nH]c(-c2ccc(C(F)(F)F)cc2)nc1CN1CCC(N2C(=O)Cc3ccccc32)CC1 [Example 2, 1-{1-[5-Methyl-2-(4-trifluoromethyl-phenyl)-1H-imidazol-4-ylmethyl]-piperidin-4-yl}-1,3-dihydro-indol-2-one] | – | 780
3 | Cc1[nH]c(-c2ccc(C(F)(F)F)cc2)nc1CN1CCC(n2cnc3ccccc32)CC1 [Example 3, 1-{1-[5-Methyl-2-(4-trifluoromethyl-phenyl)-1H-imidazol-4-ylmethyl]-piperidin-4-yl}-1H-benzoimidazole] | 450 | –
4 | Cc1nc(-c2ccc(C(F)(F)F)cc2)[nH]c1CN1CCC(N2CCCCC2=O)CC1 [Example 8, 1-[1-[[4-Methyl-2-[4-(trifluoromethyl)phenyl]-1H-imidazol-5-yl]methyl]-4-piperidyl]piperidin-2-one] | 3280 | –
5 | Cc1[nH]c(-c2ccc(C(F)(F)F)cc2)nc1CN1CCC(n2c(=O)[nH]c3ccc(N4CCCC4)cc32)CC1 [Example 9, 1-{1-[5-Methyl-2-(4-trifluoromethyl-phenyl)-1H-imidazol-4-ylmethyl]-piperidin-4-yl}-6-pyrrolidin-1-yl-1,3-dihydro-benzoimidazol-2-one] | 190 | –
6 | Cc1[nH]c(-c2ccc(C(F)(F)F)cc2)nc1CN1CCC(n2c(=O)[nH]c3ccc(N4CCOCC4)cc32)CC1 [Example 10, 1-{1-[5-Methyl-2-(4-trifluoromethyl-phenyl)-1H-imidazol-4-ylmethyl]-piperidin-4-yl}-6-morpholin-4-yl-1,3-dihydro-benzoimidazol-2-one] | 280 | –
7 | Cc1[nH]c(-c2ccc(C(F)(F)F)cc2)nc1CN1CCC(n2c(=O)[nH]c3ccc(N4CCN(C)CC4)cc32)CC1 [Example 11, 6-(4-Methyl-piperazin-1-yl)-1-{1-[5-methyl-2-(4-trifluoromethyl-phenyl)-1H-imidazol-4-ylmethyl]-piperidin-4-yl}-1,3-dihydro-benzoimidazol-2-one] | 460 | –
8 | Cc1nc(-c2ccc(C(F)(F)F)cc2)[nH]c1CN1CCC(n2cc(-c3ccc(Br)cc3)[nH]c2=O)CC1 [Example 12, 5-(4-Bromophenyl)-3-[1-[[4-methyl-2-[4-(trifluoromethyl)phenyl]-1H-imidazol-5-yl]methyl]-4-piperidyl]-1H-imidazol-2-one] | 590 | –
9 | Cc1nc(-c2ccc(C(F)(F)F)cc2)[nH]c1CN1CCC(n2cnc3c(=O)[nH]ccc32)CC1 [Example 13, 1-[1-[[4-Methyl-2-[4-(trifluoromethyl)phenyl]-1H-imidazol-5-yl]methyl]-4-piperidyl]-5H-imidazo[4,5-c]pyridin-4-one] | 2750 | –
10 | O=c1[nH]ccc2c1ncn2C1CCN(Cc2cnc(-c3ccc(C(F)(F)F)cc3)[nH]2)CC1 [Example 14, 1-[1-[[2-[4-(Trifluoromethyl)phenyl]-1H-imidazol-5-yl]methyl]-4-piperidyl]-5H-imidazo[4,5-c]pyridin-4-one] | 4320 | –
11 | O=c1[nH]c(-c2ccc(Br)cc2)nn1C1CCN(Cc2cnc(-c3ccc(C(F)(F)F)cc3)[nH]2)CC1 [Example 16, 5-(4-Bromophenyl)-2-[1-[[2-[4-(trifluoromethyl)phenyl]-1H-imidazol-5-yl]methyl]-4-piperidyl]-4H-1,2,4-triazol-3-one] | 1500 | –
12 | O=C1Nc2ccc(Br)cc2CN1C1CCN(Cc2cnc(-c3ccc(C(F)(F)F)cc3)[nH]2)CC1 [Example 17, 6-Bromo-3-[1-[[2-[4-(trifluoromethyl)phenyl]-1H-imidazol-5-yl]methyl]-4-piperidyl]-1,4-dihydroquinazolin-2-one] | 195 | –
13 | Cc1[nH]c(-c2ccc(C(F)(F)F)cc2)nc1CN1CCC(n2c(=O)n(C)c3cc(Cl)ccc32)CC1 [Example 18, 5-Chloro-3-methyl-1-{1-[5-methyl-2-(4-trifluoromethyl-phenyl)-1H-imidazol-4-ylmethyl]-piperidin-4-yl}-1,3-dihydro-benzoimidazol-2-one] | 195 | –
14 | Cc1[nH]c(-c2ccc(C(F)(F)F)cc2)nc1CN1CCC(N2C(=O)COc3ccccc32)CC1 [Example 19, 4-{1-[5-Methyl-2-(4-trifluoromethyl-phenyl)-1H-imidazol-4-ylmethyl]-piperidin-4-yl}-4H-benzo[1,4]oxazin-3-one] | – | 470
15 | Cc1[nH]c(-c2ccc(C(F)(F)F)cc2)nc1CN1CCC(N2Cc3ccc(F)cc3NC2=O)CC1 [Example 25, 7-Fluoro-3-{1-[5-methyl-2-(4-trifluoromethyl-phenyl)-1H-imidazol-4-ylmethyl]-piperidin-4-yl}-3,4-dihydro-1H-quinazolin-2-one] | 180 | –
16 | CCn1c(=O)n(C2CCN(Cc3nc(-c4ccc(C(F)(F)F)cc4)[nH]c3C)CC2)c2ccc(Cl)cc21 [Example 26, 5-Chloro-3-ethyl-1-{1-[5-methyl-2-(4-trifluoromethyl-phenyl)-1H-imidazol-4-ylmethyl]-piperidin-4-yl}-1,3-dihydro-benzoimidazol-2-one] | 150 | –
17 | COCCn1c(=O)n(C2CCN(Cc3nc(-c4ccc(C(F)(F)F)cc4)[nH]c3C)CC2)c2ccc(Cl)cc21 [Example 27, 5-Chloro-3-(2-methoxy-ethyl)-1-{1-[5-methyl-2-(4-trifluoromethyl-phenyl)-1H-imidazol-4-ylmethyl]-piperidin-4-yl}-1,3-dihydro-benzoimidazol-2-one] | 220 | –
18 | Cc1[nH]c(-c2ccc(C(F)(F)F)cc2)nc1CN1CCC(N2Cc3ccccc3NC2=O)CC1 [Example 28, 3-{1-[5-Methyl-2-(4-trifluoromethyl-phenyl)-1H-imidazol-4-ylmethyl]-piperidin-4-yl}-3,4-dihydro-1H-quinazolin-2-one] | 190 | –
19 | CC(=O)OCCn1c(=O)n(C2CCN(Cc3nc(-c4ccc(C(F)(F)F)cc4)[nH]c3C)CC2)c2ccc(Cl)cc21 [Example 29, Acetic acid 2-(6-chloro-3-{1-[5-methyl-2-(4-trifluoromethyl-phenyl)-1H-imidazol-4-ylmethyl]-piperidin-4-yl}-2-oxo-2,3-dihydro-benzoimidazol-1-yl)-ethyl ester] | 280 | –
20 | Cc1[nH]c(-c2ccc(C(F)(F)F)cc2)nc1CN1CCC(n2c(=O)n(CCO)c3cc(Cl)ccc32)CC1 [Example 30, 5-Chloro-3-(2-hydroxy-ethyl)-1-{1-[5-methyl-2-(4-trifluoromethyl-phenyl)-1H-imidazol-4-ylmethyl]-piperidin-4-yl}-1,3-dihydro-benzoimidazol-2-one] | 230 | –
21 | Cc1[nH]c(-c2ccc(C(F)(F)F)cc2)nc1CN1CCC(n2c(=O)n(CC(N)=O)c3cc(Cl)ccc32)CC1 [Example 31, 2-(6-Chloro-3-{1-[5-methyl-2-(4-trifluoromethyl-phenyl)-1H-imidazol-4-ylmethyl]-piperidin-4-yl}-2-oxo-2,3-dihydro-benzoimidazol-1-yl)-acetamide] | 310 | –
22 | CNC(=O)Cn1c(=O)n(C2CCN(Cc3nc(-c4ccc(C(F)(F)F)cc4)[nH]c3C)CC2)c2ccc(Cl)cc21 [Example 32, 2-(6-Chloro-3-{1-[5-methyl-2-(4-trifluoromethyl-phenyl)-1H-imidazol-4-ylmethyl]-piperidin-4-yl}-2-oxo-2,3-dihydro-benzoimidazol-1-yl)-N-methyl-acetamide] | 330 | –
23 | COC(=O)Cn1c(=O)n(C2CCN(Cc3nc(-c4ccc(C(F)(F)F)cc4)[nH]c3C)CC2)c2ccc(Cl)cc21 [Example 33, (6-Chloro-3-{1-[5-methyl-2-(4-trifluoromethyl-phenyl)-1H-imidazol-4-ylmethyl]-piperidin-4-yl}-2-oxo-2,3-dihydro-benzoimidazol-1-yl)-acetic acid methyl ester] | 130 | –
24 | Cc1[nH]c(-c2ccc(C(F)(F)F)cc2)nc1CN1CCC(n2c(=O)n(CC(=O)O)c3cc(Cl)ccc32)CC1 [Example 34, (6-Chloro-3-{1-[5-methyl-2-(4-trifluoromethyl-phenyl)-1H-imidazol-4-ylmethyl]-piperidin-4-yl}-2-oxo-2,3-dihydro-benzoimidazol-1-yl)-acetic acid] | 930 | –
25 | Cc1[nH]c(-c2ccc(C(F)(F)F)cc2)nc1CN1CCC(n2c(=O)n(CCS(C)(=O)=O)c3cc(Cl)ccc32)CC1 [Example 35, 5-Chloro-3-(2-methanesulfonyl-ethyl)-1-{1-[5-methyl-2-(4-trifluoromethyl-phenyl)-1H-imidazol-4-ylmethyl]-piperidin-4-yl}-1,3-dihydro-benzoimidazol-2-one] | 257 | –
26 | Cc1[nH]c(-c2ccc(C(F)(F)F)cc2)nc1CN1CCC(c2c[nH]c3ccccc23)CC1 [Example 36, 3-{1-[5-Methyl-2-(4-trifluoromethyl-phenyl)-1H-imidazol-4-ylmethyl]-piperidin-4-yl}-1H-indole] | 770 | –
27 | Cc1[nH]c(-c2ccc(C(F)(F)F)cc2)nc1CN1CCC(c2noc3cc(F)ccc23)CC1 [Example 37, 6-Fluoro-3-{1-[5-methyl-2-(4-trifluoromethyl-phenyl)-1H-imidazol-4-ylmethyl]-piperidin-4-yl}-benzo[d]isoxazole] | 595 | –
28 | Cc1[nH]c(-c2ccc(C(F)(F)F)cc2)nc1CN1CCC(c2c[nH]c3ncccc23)CC1 [Example 38, 3-{1-[5-Methyl-2-(4-trifluoromethyl-phenyl)-1H-imidazol-4-ylmethyl]-piperidin-4-yl}-1H-pyrrolo[2,3-b]pyridine] | 470 | –
